Where a SMILES comes first, the peptide text is derived from it. Bridges are numbered along the chain shown (N, C = ends). [ ]: non-standard residue; d: D form. Orn = NCCC[C@H](N)C(=O)O; Mpa = O=C(O)CCS
Legend:
Vasopressin V1a receptor = Vasopressin V1a receptor (Homo sapiens, UniProt P37288)
Vasopressin V2 receptor = Vasopressin V2 receptor (Homo sapiens, UniProt P30518)
Vasopressin V1b receptor = molecular target: T1, Vasopressin V1b receptor (Homo sapiens, UniProt P47901)
T1 sequence (P47901 whole entry): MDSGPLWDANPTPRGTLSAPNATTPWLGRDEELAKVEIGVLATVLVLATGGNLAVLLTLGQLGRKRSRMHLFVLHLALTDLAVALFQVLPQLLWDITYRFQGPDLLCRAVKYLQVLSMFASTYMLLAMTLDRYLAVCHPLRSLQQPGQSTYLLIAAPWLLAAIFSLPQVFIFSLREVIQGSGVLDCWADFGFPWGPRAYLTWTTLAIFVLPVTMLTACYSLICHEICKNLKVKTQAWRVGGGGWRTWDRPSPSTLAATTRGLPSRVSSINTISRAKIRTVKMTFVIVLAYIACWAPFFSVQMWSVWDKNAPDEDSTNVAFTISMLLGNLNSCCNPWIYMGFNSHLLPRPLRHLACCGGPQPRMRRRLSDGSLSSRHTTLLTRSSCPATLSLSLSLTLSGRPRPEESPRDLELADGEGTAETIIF

Oxytocin receptor [1] = molecular target: T2, Oxytocin receptor (Homo sapiens, UniProt P30559)
T2 sequence (P30559 whole entry): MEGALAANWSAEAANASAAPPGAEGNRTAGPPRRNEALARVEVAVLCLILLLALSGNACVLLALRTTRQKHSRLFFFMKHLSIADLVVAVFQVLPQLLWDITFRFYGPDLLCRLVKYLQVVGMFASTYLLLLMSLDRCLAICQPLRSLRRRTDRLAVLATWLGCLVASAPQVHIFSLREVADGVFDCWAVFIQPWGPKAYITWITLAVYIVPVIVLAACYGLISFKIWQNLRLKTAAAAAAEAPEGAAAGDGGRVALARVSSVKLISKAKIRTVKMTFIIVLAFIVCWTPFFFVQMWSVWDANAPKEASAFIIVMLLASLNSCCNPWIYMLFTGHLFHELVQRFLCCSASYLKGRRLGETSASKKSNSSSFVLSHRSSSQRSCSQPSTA

Oxytocin receptor [2] = molecular target: T3, Oxytocin receptor (Rattus norvegicus, UniProt P70536)
T3 sequence (P70536 whole entry): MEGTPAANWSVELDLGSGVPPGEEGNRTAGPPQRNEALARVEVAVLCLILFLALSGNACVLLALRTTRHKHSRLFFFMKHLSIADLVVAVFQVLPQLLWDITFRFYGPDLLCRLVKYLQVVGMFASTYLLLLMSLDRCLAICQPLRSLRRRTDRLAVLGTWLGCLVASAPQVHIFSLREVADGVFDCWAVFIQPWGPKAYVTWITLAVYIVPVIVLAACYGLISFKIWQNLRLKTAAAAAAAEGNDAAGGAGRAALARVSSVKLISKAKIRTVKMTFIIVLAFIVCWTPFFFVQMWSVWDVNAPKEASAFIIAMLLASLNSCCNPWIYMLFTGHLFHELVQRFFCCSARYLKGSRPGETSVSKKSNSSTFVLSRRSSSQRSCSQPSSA

Sequence of Vasopressin V2 receptor (P30518 whole entry): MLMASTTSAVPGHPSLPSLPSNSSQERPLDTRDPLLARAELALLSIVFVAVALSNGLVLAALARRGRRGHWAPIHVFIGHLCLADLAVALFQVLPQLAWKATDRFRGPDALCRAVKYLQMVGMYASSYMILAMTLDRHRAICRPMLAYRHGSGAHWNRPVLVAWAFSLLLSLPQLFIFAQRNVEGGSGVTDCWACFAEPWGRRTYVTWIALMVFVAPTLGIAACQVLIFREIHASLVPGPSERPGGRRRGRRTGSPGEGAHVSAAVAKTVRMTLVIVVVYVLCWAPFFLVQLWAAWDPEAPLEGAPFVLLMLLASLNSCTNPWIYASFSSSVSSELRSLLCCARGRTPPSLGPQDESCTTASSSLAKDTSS
Sequence of Vasopressin V1a receptor (P37288 whole entry): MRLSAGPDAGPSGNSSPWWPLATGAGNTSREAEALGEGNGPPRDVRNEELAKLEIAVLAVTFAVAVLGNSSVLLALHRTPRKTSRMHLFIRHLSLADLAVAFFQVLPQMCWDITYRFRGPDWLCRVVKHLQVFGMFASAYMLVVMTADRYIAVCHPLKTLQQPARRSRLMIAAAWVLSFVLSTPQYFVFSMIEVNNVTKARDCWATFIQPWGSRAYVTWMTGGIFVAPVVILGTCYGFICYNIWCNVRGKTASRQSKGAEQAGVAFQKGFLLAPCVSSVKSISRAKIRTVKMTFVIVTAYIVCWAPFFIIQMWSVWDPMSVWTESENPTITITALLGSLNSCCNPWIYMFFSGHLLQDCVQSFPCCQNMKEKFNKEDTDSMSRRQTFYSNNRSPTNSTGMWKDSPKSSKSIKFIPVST

Ki (Vasopressin V1a receptor) [nM]	Ki (Vasopressin V2 receptor) [nM]	Ki (Vasopressin V1b receptor) [nM]	Ki (Oxytocin receptor [1]) [nM]	Ki (Oxytocin receptor [2]) [nM]	Structure (SMILES)
3.5	954	657	81		CCOc1ccc(C[C@H]2NC(=O)CCSSC[C@@H](C(=O)N3CCC[C@H]3C(=O)N[C@@H](CCCN)C(=O)NCC(N)=O)NC(=O)[C@H](CC(N)=O)NC(=O)[C@H]([C@@H](C)O)NC(=O)[C@H]([C@@H](C)CC)NC2=O)cc1 [CAS_90779-69-4] ([Mpa][dY](Et)ITNCP[Orn]G-NH2; disulfide 1-6)
170	> 10000	> 10000	17	135	CO/N=C1/C[C@@H](C(=O)NC[C@@H](O)c2ccccc2)N(C(=O)c2ccc(-c3ccccc3C)cc2)C1 [(2S,4Z)-N-[(2S)-2-hydroxy-2-phenylethyl]-4-(methoxyimino)-1-[(2'-methyl[1,1'-biphenyl]-4-yl)carbonyl]-2-pyrrolidinecarboxamide]
